In publication PMC3727052 (Bioorganic & medicinal chemistry, 2012):

Key:
[1] = test system: Parainfluenza-3 virus; assay: Virus-induced cytopathicity, parainfluenza-3 virus in Vero cells; format: cell-based; details: read-out: EC50 Parainfluenza-3 virus
[2] = test system: MDCK; details: MDCK cells, microscopically visible alteration of cell morphology
[3] = test system: Reovirus-1; assay: Virus-induced cytopathicity, reovirus-1 in Vero cells; format: cell-based; details: read-out: EC50 Reovirus-1
[4] = test system: HeLa; details: HeLa cells, microscopically visible alteration of cell morphology
[5] = test system: HEL; details: HEL cells, microscopically visible alteration of cell morphology
[6] = test system: VZV (OKA & 07/1); assay: VZV plaque formation assay in HEL cells; format: cell-based, varicella-zoster virus; details: Human alphaherpesvirus 3, HEL, 120 h, read-out: EC50 VZV (OKA & 07/1)
[7] = test system: Vero; details: Vero cells, microscopically visible alteration of cell morphology
[8] = test system: RSV; assay: Virus-induced cytopathicity, RSV in HeLa cells; format: cell-based; details: human respiratory syncytial virus, read-out: EC50 RSV
[9] = test system: Influenza virus B; assay: Virus-induced cytopathicity, influenza B in MDCK cells; format: cell-based; details: unidentified influenza virus, read-out: EC50 Influenza virus B
[10] = test system: Influenza virus (AH3N2); assay: Virus-induced cytopathicity, influenza A H3N2 in MDCK cells; format: cell-based; details: unidentified influenza virus, read-out: EC50 Influenza virus (AH3N2)

Row | Structure (SMILES) | EC50 [1] | MCC (minimal cytotoxic concentration) MDCK [2] | EC50 [3] | MCC (minimal cytotoxic concentration) HeLa [4] | MCC (minimal cytotoxic concentration) HEL [5] | EC50 [6] | MCC (minimal cytotoxic concentration) Vero [7] | EC50 [8] | EC50 [9] | EC50 [10]
1 | Nc1nc2c(sc3ncn([C@H]4C[C@H](O)[C@@H](CO)O4)c32)c(=O)[nH]1 [Compound 5, 1-[(5-Aminoimidazo[4′,5′:4,5]thieno[3,2-d]pyrimidin-3-yl-7-one)]-β-D-2′-deoxyribofuranose] | > 100 µM | 0.8 µM | > 100 µM | 100 µM | >100 µM | 71.3 to 100 µM | 100 µM | – | – | –
2 | NC(=O)c1ncn([C@@H]2O[C@H](CO)[C@@H](O)[C@H]2O)n1 [Ribavirin] | – | – | > 250 µM | – | – | – | – | 10 µM | 4.5 to 9 µM | 5.1 to 9 µM
3 | Nc1ncnc2c1sc1ncn([C@H]3C[C@H](O)[C@@H](CO)O3)c12 [Compound 6, 1-[(7-aminoimidazo[4′,5′:4,5]thieno[3,2-d]pyrimidin-3-yl)]-β-D-2′-deoxyribofuranose] | > 100 µM | 20 µM | – | >100 µM | ≥20 µM | – | >100 µM | – | – | –
